From article PMC9945084, “Stimulation of natural killer cells with small molecule inhibitors of CD38 for the treatment of neuroblastoma” (Chemical Science, 2023)
Several values for one entry are separate records, joined by “and”; a condition that tells them apart may be missing. Equal entries are not always repeated.

Experiments:
[1] = target: T1, human recombinant CD38 (hydrolase activity) (Homo sapiens, UniProt P28907); assay: Human recombinant CD38 fluorometric enzyme assay, hydrolase activity (εNAD+); assay type: biochemical; conditions: for remaining activity at 50 µM: 50.0 μM compound, 10 nM recombinant CD38, 10 μM εNAD+; for IC50: recombinant CD38 enzyme assay; for decrease in potency relative to hit compound 1: CD38 hydrolase IC50 versus 1
T1 sequence (P28907 whole entry): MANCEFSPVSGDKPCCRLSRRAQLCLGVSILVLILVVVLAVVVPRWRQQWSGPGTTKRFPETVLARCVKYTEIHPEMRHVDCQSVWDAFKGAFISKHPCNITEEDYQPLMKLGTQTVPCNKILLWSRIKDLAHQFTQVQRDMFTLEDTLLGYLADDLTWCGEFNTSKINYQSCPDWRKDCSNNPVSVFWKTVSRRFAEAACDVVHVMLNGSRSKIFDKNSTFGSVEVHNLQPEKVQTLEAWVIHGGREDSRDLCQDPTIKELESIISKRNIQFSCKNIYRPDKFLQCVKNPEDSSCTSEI
Procedure: Compounds were screened for inhibition against CD38 hydrolase activity in a human recombinant CD38 fluorometric assay. Recombinant CD38 was diluted in assay diluent (PBS, 0.02% Tween-20, pH 7.4) to a 4× working concentration (40 nM). Test compounds were diluted in assay diluent to a working concentration of 200 μM. Working CD38 (25.0 μL) and the 4× test compound (25.0 μL) were pipetted into a black 96-well microplate and incubated for 15 minutes at 25 °C on an orbital shaker. Following incubation, 20 μM εNAD^+ (50 μL) was pipetted into each well and fluorescence intensity was measured kinetically for 10 minutes (ex/em: 300/410 nm) using a Molecular Devices SpectraMax iD3 plate reader. Final concentrations of all components were: 10 nM recombinant CD38, 50 μM test compound (50 nM for control compound 3), and 10 μM εNAD^+. Means for data points at 1 minute 49 seconds were normalized to vehicle treated control. Values were expressed as percent remaining activity of CD38. Each assay was conducted in technical and experimental triplicate and compared to literature reported values of 14.

CD38 hydrolase activity [2] = conditions: cited from earlier work
[3] = test system: Human PB NK cells (IFNγ secretion); assay: Quantitation of IFNγ secreted by PB NK cells, 24 h (Lumit IFNγ assay); assay type: cell-based
Procedure: In light of the substantial change in viability/proliferation of PB NK cells following treatment with 2, changes in the ability of treated NK cells to secrete IFNγ were measured.[60,61] Human PB NK cells (purity > 90%) were added to a 96-well plate at a confluency of 49 000 cells per well in Immunocult-XF T cell expansion medium supplemented with 500 IU mL^−1 IL-2, 10 ng mL^−1 IL-15, and 0.2 μL mL^−1 CD2/CD3/CD28 T cell activator. These cells were exposed to varying concentrations of 2 or 14 for 24 hours, followed by quantification of IFNγ using a Lumit IFNγ assay kit (W6040, Promega, Madison, WI). Treatment groups were normalized to vehicle-treated control and data was expressed as percent change in IFNγ. As often happens, we encountered a wide variability in the response of human primary cells from different donors. […] Despite the variability in the magnitude of the IFNγ response, the trend in all 3 donors was a dose-dependent increase for both 2 and 14. Decreases in IFNγ expression at higher doses of both compounds in donors 2 and 3 may be due to modest cytotoxicity.
Human PB NK cells were plated at 49 000 cells per well (60 μL per well) on a white, clear-bottom, 96-well microplate in Immunocult-XF T cell expansion medium supplemented with 1× penicillin/streptomycin, 500 IU mL^−1 IL-2, 10 ng mL^−1 IL-15, 0.2 μL mL^−1 CD2/CD3/CD28 T cell activator. Test compounds were dissolved in DMSO and diluted to a 4× working solution. Working test compound was added to the cells (20 μL) and the cells were incubated at 37 °C, 5% CO2 for 24 hours. The last 3 columns on the microplate were left empty for IFNγ standards. The provided human IFNγ standard (10 μg mL^−1) was diluted to 10 000 pg mL^−1 using cell culture medium. The 10 000 pg mL^−1 solution was serially diluted 3.33-fold for a total of 7 standard concentrations. The IFNγ standards were plated (80 μL) in the empty columns (in triplicate) following incubation. A 5× solution of both antibodies was prepared by combining the Lumit Anti-hIFN-γ-mAb-LgBiT (24 μL) and the Lumit Anti-hIFN-γ-mAb-SmBiT (24 μL) with cell culture medium (2.4 mL). The 5× antibody solution (20 μL) was pipetted into each well. The microplate was briefly mixed for 15 seconds on a shaker at 250 rpm and incubated for 90 minutes at 37 °C, 5% CO2. Following incubation, the microplate was allowed to rest at 25 °C for 15 minutes. The Lumit detection substrate (160 μL) was diluted with Lumit detection buffer B (3040 μL) and pipetted into each well (25 μL). The microplate was allowed to incubate for 5 minutes at 25 °C and then the luminescence was measured using a Molecular Devices SpectraMax iD3 plate reader. A standard curve with averaged RLU measurements of the IFNγ concentrations was determined with GraphPad Prism using 4-parameter logistic curve fitting. […]

[4] = test system: donor 3 PB NK cells (IFNγ secretion); assay: 20 day treatment of PB NK cells, IFNγ in supernatant (Lumit IFNγ assay); assay type: cell-based, human; conditions: donor 3, fresh medium every 3 days, day 20
Procedure: The TME has the ability to down regulate NK cell activation and function, therefore it is important to discern whether inhibition of CD38 hydrolase activity over an extended period will improve NK cell activation and support a persistent response.[62] To address this question, donor 3 PB NK cells were plated on a 12-well plate at a confluency of 1 × 10^6 cells mL^−1 in Immunocult-XF T cell expansion medium supplemented with 500 IU mL^−1 IL-2, 10 ng mL^−1 IL-15, and 0.2 μL mL^−1 CD2/CD3/CD28 T cell activator. Cells were treated with vehicle control, 2, or 14. Cells were treated with fresh medium every 3 days over the course of 20 days. Cells from each treatment group were counted on the 20th day of treatment and viability determined using trypan blue. NK cells treated with 2 or 14 were normalized to vehicle control with the percent change in viable cells presented as a function of the treatment condition (Fig. 8A). We observed 43 ± 6% more viable cells in the group treated with 14 and 36 ± 13% more viable cells in the group treated with 2, relative to vehicle control. Additionally, on the 20th day of treatment the cell supernatant was collected and analyzed for IFNγ using the Promega Lumit IFNγ assay. Treatment groups were normalized to vehicle control and the data presented as IFNγ % difference as a function of treatment (Fig. 8B). […]

SHSY5Y-GFP NB cells = assay: SHSY5Y-GFP and PB NK cell co-culture assay with ch14.18-IL2; assay type: cell-based, human
Procedure: Following optimization, SHSY5Y-GFP cells were plated at 25 000 cells per well and incubated for 24 hours. PB NK cells stained with cell tracker deep red were added to SHSY5Y-GFP cells with 50 ng mL^−1 ch14.18-IL2 and treated with 2, 14 or vehicle control. Cells were incubated for 90 minutes at 37 °C and imaged using a BioTek Cytation 5 at 20× (Fig. 11A–C). Live SHSY5Y-GFP cells were quantitated by measuring the integrated GFP fluorescence intensity. After only 90 minutes treatment with a 1.0 μM concentration of 2 and 50 ng mL^−1 ch14.18-IL2a caused a 14 ± 3% decrease in SHSY5Y-GFP fluorescent area (Fig. 11B) relative to vehicle-treated control (Fig. 11A). […] Fig. 12 is a close-up view from a representative well showing the effects of 1 μM 2 combined with 50 ng mL^−1 ch14.18-IL2.
SHSY5Y-GFP NB cells were plated at a concentration of 25 000 cells per well (100 μL) for 12 hours on a black, clear-bottom, 96-well microplate. PB NK cells were washed with PBS and resuspended in 5 μM cell tracker deep red in RPMI 1640 without FBS for 30 minutes at 37 °C, 5% CO2. Following incubation, cells were washed with PBS and resuspended in RPMI 1640 supplemented with 10% FBS. Compounds were dissolved in DMSO and diluted to a 4 μM working solution with cell culture medium. […] The sum integration of GFP area was measured and normalized to vehicle-treated control. […]

SHSY5Y-GFP cells = assay: Proliferative effect on SHSY5Y-GFP cells alone, 24 h imaging; assay type: cell-based, human; conditions: 1.0 μM, at both 20 000 and 30 000 cells per well
Procedure: SHSY5Y-GFP cells were plated at 20 000, 30 000, 40 000, and 50 000 cells per well with 6 test wells each. Cells were incubated for 24 hours and imaged with a BioTek Cytation 5 at 20× with 4 fields per well using brightfield and GFP channels. The data is presented as the sum of SHSY5Y-GFP cells in imaged fields as a function of cells per well (Fig. 9A). Optimal plating density was determined to be between 20 000 and 30 000 cells per well. Additionally, we wanted to rule out proliferative effects in SHSY5Y-GFP cells treated with 2. Cells were plated at 20 000 or 30 000 cells per well and treated with varying concentrations of 2 or vehicle control for 24 hours and imaged as described above. Data was then expressed as the sum of SHSY5Y-GFP cells in imaged fields as a function of the concentration of 2 (Fig. 9B).

[5] = target: T1, human recombinant CD38 (hydrolase activity); assay: Human recombinant CD38 fluorometric enzyme assay, hydrolase activity (εNAD+); assay type: biochemical; conditions: 25 μM compound
NAD+ levels = test system: NAD+ levels; parameters: method as in PMID 35497564; conditions: cited from earlier work
CD38 cyclase activity = test system: CD38 cyclase activity; parameters: method as in PMID 26864107; conditions: cited from earlier work
CD38 hydrolase activity [6] = test system: CD38 hydrolase activity; parameters: method as in PMID 26864107; conditions: cited from earlier work

CC1=CC(C)(C)N=C(Nc2nc(C)c3cc(C)cc(C)c3n2)N1 [Compound 1]
remaining activity at 50 µM [1]: 61.6 ± 2%
IC50 [1]: 4.2 ± 0.5 µM
mode of inhibition of CD38 hydrolase activity (CD38 hydrolase activity [2]): mixed inhibition

COc1cc(C)cc2c(C)nc(NC3=NC(C)(C)C=C(C)N3)nc12 [Compound 2, 8-Methoxy-4,6-dimethyl-N-(4,4,6-trimethyl-1,4-dihydropyrimidin-2-yl)quinazolin-2-amine]
IC50 [1]: 1.9 ± 0.1 µM
increase in IFNγ, donor 1 ([3]; donor 1, 1.0 μM): 759 ± 45%
increase in IFNγ, donor 2 ([3]; donor 2, 0.111 μM): 100 ± 29%
increase in IFNγ, donor 3 ([3]; donor 3, 0.037 μM): 18 ± 2%
more IFNγ secreted relative to vehicle control [4]: 20 ± 1%
decrease in SHSY5Y-GFP fluorescent area relative to vehicle-treated control (SHSY5Y-GFP NB cells; 1.0 μM + 50 ng mL−1 ch14.18-IL2, 90 minutes, effector : target 1 : 1): 14% and 14 ± 3%
cell number difference between vehicle-treated and treated SHSY5Y-GFP cells (SHSY5Y-GFP cells): < 4%
remaining activity at 25 µM [5]: 5.6 ± 0.8%
change in NAD+ levels (NAD+ levels): significant increases

CC1=CC(C)(C)N=C(Nc2nc(C)c3cccc(C)c3n2)N1 [Compound 3]
remaining activity at 50 µM [1]: 41 ± 0.03%
decrease in potency relative to hit compound 1 [1]: 2 fold
IC50 [1]: 8.4 ± 0.7 µM

Cc1cc(C)c2nc(Nc3nc(C)c(C)c(O)n3)nc(C)c2c1 [Compound 4]
remaining activity at 50 µM [1]: 58.2 ± 1.4%
IC50 [1]: 5.1 ± 0.9 µM

CCOc1ccc2nc(Nc3nc(=O)c(Cc4ccccc4)c(C)[nH]3)nc(C)c2c1 [Compound 5]
remaining activity at 50 µM [1]: 57 ± 0.3%
decrease in potency relative to hit compound 1 [1]: 2 fold
IC50 [1]: 8 µM and 8.3 µM

Cc1nc(NC2=NCCC(=O)N2)nc2ccccc12 [Compound 6]
remaining activity at 50 µM [1]: 66.8 ± 0.6%

Cc1nc(Nc2nc(CCC(C)C)cc(=O)[nH]2)nc2ccccc12 [Compound 7]
remaining activity at 50 µM [1]: 60.3 ± 0.7%
IC50 [1]: 4 ± 0.9 µM

Cc1nc(NC2=NCN(CCN3CCOCC3)CN2)nc2c(C)cccc12 [Compound 9]
remaining activity at 25 µM [5]: 65.3 ± 0.6%

CC1=CC(C)(C)N=C(Nc2nc(-c3ccccc3)c3cc(C)cc(C)c3n2)N1 [Compound 11]
remaining activity at 50 µM [1]: 49.1 ± 2.2%
decrease in potency relative to hit compound 1 [1]: 5 fold
IC50 [1]: 23 µM and 23.8 µM

CC1=NC(Nc2nc(C)c3cc(C)cc(C)c3n2)=NC(C)(C)C1 [Compound 12]
remaining activity at 50 µM [1]: 52 ± 9.6%
decrease in potency relative to hit compound 1 [1]: ~3 fold

CCc1ccc2c(C)nc(NC3=NC(C)(C)C=C(C)N3)nc2c1 [Compound 13]
remaining activity at 50 µM [1]: 48.1 ± 6.8%
IC50 [1]: 22.4 ± 1.1 µM

COCCO[C@H]1CC[C@H](Nc2cc(=O)n(C)c3ccc(-c4cncs4)cc23)CC1 [Compound 14, reference compound]
remaining activity at 0.05 µM ([1]; positive control 14, used at 50.0 nM according to b14 and b58): 60.3 ± 1.8%
IC50 [1]: 0.078 ± 0.03 µM
increases in IFNγ levels, in words ([3]; all 3 donors): similaer to the effects of 2
more IFNγ secreted relative to vehicle control [4]: 23 ± 2%
difference in SHSY5Y-GFP cells versus vehicle-treated control, in words (SHSY5Y-GFP NB cells; 1 μM + 50 ng mL−1 ch14.18-IL2, 90 minutes): not a statistically significant difference
mode of inhibition of CD38 (CD38 hydrolase activity [2]): mixed inhibition
change in NAD+ levels (NAD+ levels): significant increases

daratumumab
effect on CD38 cyclase activity (CD38 cyclase activity): modest inhibitory activity
effect on CD38 hydrolase activity (CD38 hydrolase activity [6]): enhances CD38 hydrolase activity
